Assays:
[1] = target: CfEcR-DEF mutant V107I/Y127E/G (Choristoneura fumiferana, UniProt O77255, INS541G/V390I/Y410E); test: GAL4-driven luciferase reporter assay in NIH3T3 cells; assay type: cell-based; details: for Emax: NIH3T3, 40 h, read-out: Rel Max FI
Experimental: (§1) This construct was prepared in the same way as in switch 1.1 above except wild-type CfEcR-DEF was replaced with mutant CfEcR-DEF comprising a ligand binding domain comprising a substitution mutation selected from Table 1 below.
The Gal-4-CfEcR-DEF(VYG) mutant was created by inserting an extra glycine at the C-terminal end of EcR substitution mutant V107I/Y127E [CfECR(VY)] by PCR. Essentially, this was done in two steps: PCR-amplification of CfEcR-DEF(VYG) and substitution of the CfEcR(VY) in the vector GAL4-CfEcR DEF(VY) pBIND 1-9 with the PCR-amplified CfEcR-DEF(VYG). The CfEcR-DEF region (with the extra glycine) was amplified by using the vector GAL4-CfEcR DEF(VY) pBIND 1-9 as template and the following PCR primers: […]
(§2) DNAs were transfected into mouse NIH3T3 cells (ATCC) as follows. Standard methods for culture and maintenance of the cells were followed. Cells were harvested and plated 96-well plates at 2,500 cells per well, in 50 μL of growth medium containing 10% fetal bovine serum (FBS). Twenty-four hours later, the cells were treated with 35 μL of serum-free growth medium containing either dimethylsulfoxide (DMSO; control) or a DMSO solution of ligand. The cells were then transfected using Superfect (Qiagen Inc.) transfection reagent. For each well, 0.625 μL of Superfect was mixed with 14.2 μL of serum-free growth medium. 0.16 μg of reporter construct and 0.04 μg of each receptor construct were added to the transfection reagent mix. The contents of the transfection mix were mixed in a vortex mixer and let stand at room temperature for 30 minutes. At the end of incubation, 15 μL of transfection mix was added to the cells. The cells were maintained at 37° C. and 5% CO2 for 48 hours in 5% FBS.
(§3) Reporter Assays: Cells were harvested 40 hours after adding ligands. 125 μL of passive lysis buffer (part of Dual-Luciferase reporter assay system from Promega Corporation) were added to each well of the […] plate. The plates were placed on a rotary shaker for 15 minutes. Twenty μL of lysate were assayed. Luciferase activity was measured using Dual-Luciferase reporter assay system from Promega Corporation following the manufacturer's instructions. Fold induction (FI) activities were calculated by dividing relative light units (“RLU”) in ligand treated cells with RLU in DMSO treated cells (untreated control).

[2] = target: CfEcR-DEF mutant V96E (Choristoneura fumiferana, UniProt O77255, V379E); test: cell-based; parameters: Concentration (mM) at max FI: unit not given here; details: for Emax: NIH3T3, 40 h, read-out: Rel Max FI
Experimental: as §1, §2, §3

[3] = target: CfEcR-DEF mutant W238E (Choristoneura fumiferana, UniProt O77255, W521E); test: cell-based; parameters: Concentration (mM) at max FI: unit not given here; details: for Emax: NIH3T3, 40 h, read-out: Rel Max FI
Experimental: as §1, §2, §3

[4] = target: CfEcR-DEF mutant F109M (Choristoneura fumiferana, UniProt O77255, F392M); test: cell-based; parameters: Concentration (mM) at max FI: unit not given here; details: for Emax: NIH3T3, 40 h, read-out: Rel Max FI
Experimental: as §1, §2, §3

[5] = target: CfEcR-DEF mutant Y120M (Choristoneura fumiferana, UniProt O77255, Y403M); test: cell-based; parameters: Concentration (mM) at max FI: unit not given here; details: for Emax: NIH3T3, 40 h, read-out: Rel Max FI
Experimental: as §1, §2, §3

[6] = target: CfEcR-DEF mutant F48W (Choristoneura fumiferana, UniProt O77255, F331W); test: cell-based; parameters: Concentration (mM) at max FI: unit not given here; details: for Emax: NIH3T3, 40 h, read-out: Rel Max FI
Experimental: as §1, §2, §3

[7] = target: CfEcR-DEF mutant A110N (Choristoneura fumiferana, UniProt O77255, A393N); test: cell-based; parameters: Concentration (mM) at max FI: unit not given here; details: for Emax: NIH3T3, 40 h, read-out: Rel Max FI
Experimental: as §1, §2, §3

[8] = target: CfEcR-DEF mutant T52P (Choristoneura fumiferana, UniProt O77255, T335P); test: cell-based; parameters: Concentration (mM) at max FI: unit not given here; details: for Emax: NIH3T3, 40 h, read-out: Rel Max FI
Experimental: as §1, §2, §3

[9] = target: CfEcR-DEF mutant F48Y (Choristoneura fumiferana, UniProt O77255, F331Y); test: cell-based; parameters: Concentration (mM) at max FI: unit not given here; details: for Emax: NIH3T3, 40 h, read-out: Rel Max FI
Experimental: as §1, §2, §3

[10] = target: CfEcR-DEF mutant V128F (Choristoneura fumiferana, UniProt O77255, V411F); test: cell-based; parameters: Concentration (mM) at max FI: unit not given here; details: for EC50: EC50, mutant V128F; for Emax: NIH3T3, 40 h, read-out: Rel Max FI
Experimental: as §1, §2, §3

[11] = target: CfEcR-DEF mutant M125N (Choristoneura fumiferana, UniProt O77255, M408N); test: GAL4-driven luciferase reporter assay in NIH3T3 cells; assay type: cell-based
Outline: (§4)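 Mouse NIH3T3 cells were treated with ligand in DMSO, then transfected with GAL4 luciferase reporter (0.16 μg/well) plus mutant CfEcR-DEF receptor constructs (0.04 μg each/well). Cells were kept at 37° C in 5% FBS and lysed 40 hours after ligand addition for dual-luciferase measurement. Fold induction = ligand RLU ÷ DMSO RLU.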

[12] = target: CfEcR-DEF mutant M125G (Choristoneura fumiferana, UniProt O77255, M408G); test: as above; assay type: cell-based
Outline: as §4

[13] = target: CfEcR-DEF mutant M219A (Choristoneura fumiferana, UniProt O77255, M502A); test: as above; assay type: cell-based
Outline: as §4

[14] = target: CfEcR-DEF mutant M125S (Choristoneura fumiferana, UniProt O77255, M408S); test: as above; assay type: cell-based
Outline: as §4

[15] = target: CfEcR-DEF mutant M219Y (Choristoneura fumiferana, UniProt O77255, M502Y); test: as above; assay type: cell-based
Outline: as §4

[16] = target: CfEcR-DEF mutant T52G (Choristoneura fumiferana, UniProt O77255, T335G); test: as above; assay type: cell-based
Outline: as §4

[17] = tested on: CfEcR-DEF mutant N119F; test: as above; assay type: cell-based, Choristoneura fumiferana
Experimental: as §1, §2, §3

[18] = NIH3T3, mouse, 40 h, read-out: GS-E ligand max FI (relative to DMSO)
[19] = NIH3T3, 40 h, read-out: Rel Max FI

Sequence of CfEcR-DEF mutant A110N (O77255 entry or part of it A393N): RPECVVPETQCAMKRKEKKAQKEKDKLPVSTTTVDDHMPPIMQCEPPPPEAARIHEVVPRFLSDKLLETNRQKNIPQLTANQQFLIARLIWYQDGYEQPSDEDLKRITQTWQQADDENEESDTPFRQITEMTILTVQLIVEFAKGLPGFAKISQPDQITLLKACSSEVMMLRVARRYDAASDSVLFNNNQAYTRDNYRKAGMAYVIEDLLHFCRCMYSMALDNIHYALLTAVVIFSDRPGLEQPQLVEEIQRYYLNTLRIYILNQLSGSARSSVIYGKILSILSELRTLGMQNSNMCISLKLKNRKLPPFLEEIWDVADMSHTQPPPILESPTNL
Sequence of CfEcR-DEF mutant A110N (P28702 299-449, stated change not applied, further chain): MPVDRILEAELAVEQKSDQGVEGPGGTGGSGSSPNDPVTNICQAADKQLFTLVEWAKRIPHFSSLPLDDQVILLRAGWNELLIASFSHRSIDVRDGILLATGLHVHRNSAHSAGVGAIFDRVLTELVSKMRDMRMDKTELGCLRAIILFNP
Sequence of CfEcR-DEF mutant F48W (P28702 299-449): as the sequence (P28702 299-449, stated change not applied, further chain) above
Sequence of CfEcR-DEF mutant F48W (O77255 entry or part of it F331W): as the sequence (O77255 entry or part of it A393N) above, with F125W, N187A counted along it
Sequence of CfEcR-DEF mutant W238E (P28702 299-449): as the sequence (P28702 299-449, stated change not applied, further chain) above
Sequence of CfEcR-DEF mutant W238E (O77255 entry or part of it W521E): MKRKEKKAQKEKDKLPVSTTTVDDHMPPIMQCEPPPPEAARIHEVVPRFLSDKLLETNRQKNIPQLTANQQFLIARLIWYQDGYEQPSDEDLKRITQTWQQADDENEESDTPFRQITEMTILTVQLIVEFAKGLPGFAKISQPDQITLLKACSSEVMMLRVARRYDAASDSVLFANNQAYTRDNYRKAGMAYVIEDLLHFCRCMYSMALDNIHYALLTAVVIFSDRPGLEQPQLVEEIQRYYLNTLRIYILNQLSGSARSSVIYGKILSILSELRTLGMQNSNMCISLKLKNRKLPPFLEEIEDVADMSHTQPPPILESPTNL
Sequence of CfEcR-DEF mutant V128F (P28702 299-449): as the sequence (P28702 299-449, stated change not applied, further chain) above
Sequence of CfEcR-DEF mutant V128F (O77255 entry or part of it V411F): as the sequence (O77255 entry or part of it W521E) above, with V193F, E303W counted along it
Sequence of CfEcR-DEF mutant V107I/Y127E/G (P28702 299-449, stated change not applied): as the sequence (P28702 299-449, stated change not applied, further chain) above
Sequence of CfEcR-DEF mutant V107I/Y127E/G (O77255 entry or part of it V390I/Y410E/INS541G): as the sequence (O77255 entry or part of it W521E) above, with E303W counted along it
Sequence of CfEcR-DEF mutant F48Y (O77255 entry or part of it F331Y): as the sequence (O77255 entry or part of it A393N) above, with F125Y, N187A counted along it
Sequence of CfEcR-DEF mutant F48Y (P28702 299-449, further chain): as the sequence (P28702 299-449, stated change not applied, further chain) above
Sequence of CfEcR-DEF mutant F109M (O77255 entry or part of it F392M): as the sequence (O77255 entry or part of it A393N) above, with F186M, N187A counted along it
Sequence of CfEcR-DEF mutant F109M (P28702 299-449, further chain): as the sequence (P28702 299-449, stated change not applied, further chain) above
Sequence of CfEcR-DEF mutant V96E (O77255 entry or part of it V379E): as the sequence (O77255 entry or part of it W521E) above, with V161E, E303W counted along it
Sequence of CfEcR-DEF mutant V96E (P28702 299-449, further chain): as the sequence (P28702 299-449, stated change not applied, further chain) above
Sequence of CfEcR-DEF mutant Y120M (O77255 entry or part of it Y403M): as the sequence (O77255 entry or part of it W521E) above, with Y185M, E303W counted along it
Sequence of CfEcR-DEF mutant Y120M (P28702 299-449, further chain): as the sequence (P28702 299-449, stated change not applied, further chain) above
Sequence of CfEcR-DEF mutant T52P (P28702 298-449): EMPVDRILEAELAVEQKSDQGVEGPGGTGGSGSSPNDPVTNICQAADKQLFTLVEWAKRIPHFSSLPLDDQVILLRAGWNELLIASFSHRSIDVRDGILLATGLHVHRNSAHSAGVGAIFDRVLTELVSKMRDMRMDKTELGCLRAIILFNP
Sequence of CfEcR-DEF mutant T52P (O77255 entry or part of it T335P): as the sequence (O77255 entry or part of it A393N) above, with T129P, N187A counted along it
Sequence of CfEcR-DEF mutant M125N (O77255 entry or part of it M408N): as the sequence (O77255 entry or part of it W521E) above, with M190N, E303W counted along it
Sequence of CfEcR-DEF mutant M125N (P28702 299-449, further chain): as the sequence (P28702 299-449, stated change not applied, further chain) above
Sequence of CfEcR-DEF mutant M125G (P28702 299-449): as the sequence (P28702 299-449, stated change not applied, further chain) above
Sequence of CfEcR-DEF mutant M125G (O77255 entry or part of it M408G): as the sequence (O77255 entry or part of it A393N) above, with N187A, M202G counted along it
Sequence of CfEcR-DEF mutant M125S (P28702 299-449): as the sequence (P28702 299-449, stated change not applied, further chain) above
Sequence of CfEcR-DEF mutant M125S (O77255 entry or part of it M408S): as the sequence (O77255 entry or part of it W521E) above, with M190S, E303W counted along it
Sequence of CfEcR-DEF mutant M219Y (P28702 299-449): as the sequence (P28702 299-449, stated change not applied, further chain) above
Sequence of CfEcR-DEF mutant M219Y (O77255 entry or part of it M502Y): as the sequence (O77255 entry or part of it A393N) above, with N187A, M296Y counted along it
Sequence of CfEcR-DEF mutant T52G (O77255 entry or part of it T335G): as the sequence (O77255 entry or part of it A393N) above, with T129G, N187A counted along it
Sequence of CfEcR-DEF mutant T52G (P28702 298-449, further chain): as the sequence (P28702 298-449) above
Sequence of CfEcR-DEF mutant M219A (O77255 entry or part of it M502A): as the sequence (O77255 entry or part of it A393N) above, with N187A, M296A counted along it
Sequence of CfEcR-DEF mutant M219A (P28702 299-449, further chain): as the sequence (P28702 299-449, stated change not applied, further chain) above

CCc1c(OC)cccc1C(=O)NN(C(=O)c1cc(C)cc(C)c1)C(C)(C)C [RG-102240, N-(2-ethyl-3-methoxybenzoyl)-N′-(3,5-dimethylbenzoyl)-N′-tert-butylhydrazine]
EC50 [1]: 170 nM | Emax [1]: 100% | EC50 [2]: ~2000 nM | Emax [2]: 100% | maximal fold induction [2, 18]: 2960 | Concentration (mM) at max FI ([2]; mutant V96E, GS-E ligand): 33.30 | EC50 [3]: ~6000 nM | Emax [3]: 100% | maximal fold induction [3, 18]: 1020 | Concentration (mM) at max FI ([3]; mutant W238E, GS-E ligand): 33.3 | EC50 [4]: 660 nM | Emax [4]: 100% | maximal fold induction [4, 18]: 1480 | Concentration (mM) at max FI ([4]; mutant F109M, GS-E ligand): 3.3 | EC50 [5]: ~4000 nM | Emax [5]: 100% | maximal fold induction [5, 18]: 1710 | Concentration (mM) at max FI ([5]; mutant Y120M, GS-E ligand): 33.3 | EC50 [6]: ~1000 nM | Emax [6]: 100% | maximal fold induction [6, 18]: 1640 | Concentration (mM) at max FI ([6]; mutant F48W, GS-E ligand): 33.3 | EC50 [7]: 1410 nM | Emax [7]: 100% | maximal fold induction [7, 18]: 1680 | Concentration (mM) at max FI ([7]; mutant A110N, GS-E ligand): 10.00 | EC50 [8]: ~10000 nM | Emax [8]: 100% | maximal fold induction [8, 18]: 301 | Concentration (mM) at max FI ([8]; mutant T52P, GS-E ligand): 33.3 | EC50 [9]: 1270 nM | Emax [9]: 100% | maximal fold induction [9, 18]: 1360 | Concentration (mM) at max FI ([9]; mutant F48Y, GS-E ligand): 33.3 | EC50 [10]: > 33000 nM | Emax [10]: 0% | maximal fold induction [10, 18]: 550 | Concentration (mM) at max FI ([10]; mutant V128F, GS-E ligand): 33.30 | EC50 [11]: 9880 nM | Emax [11, 19]: 100% | EC50 [12]: 14200 nM | Emax [12, 19]: 100% | EC50 [13]: 2900 nM | Emax [13, 19]: 100% | EC50 [14]: 12300 nM | Emax [14, 19]: 100% | EC50 [15]: 820 nM | Emax [15, 19]: 100% | EC50 [16]: 3520 nM | Emax [16, 19]: 100% | Fold increase over WT ([17]; 1.6 nM ligand): 1.22 | Fold increase over WT ([17]; 8 nM ligand): 0.73 | Fold increase over WT ([17]; 40 nM ligand): 0.06 | Fold increase over WT ([17]; 200 nM ligand): 0.01 | Fold increase over WT ([17]; 1 μM ligand): 0.08 | Fold increase over WT ([17]; 5 μM ligand): 0.59

Cc1cc(C)cc(C(=O)N(NC(=O)c2cccc(C(C)C)c2C)C(C)(C)C)c1 [RG-102362, 3,5-Dimethyl-benzoic acid N-tert-butyl-N′-(3-isopropyl-2-methyl-benzoyl)-hydrazide]
EC50 [1]: 60 nM | Emax [1]: 81% | EC50 [2]: 1860 nM | Emax [2]: 48% | EC50 [3]: 3450 nM | Emax [3]: 45% | EC50 [4]: 820 nM | Emax [4]: 60% | EC50 [5]: ~10000 nM | Emax [5]: 13% | EC50 [6]: 770 nM | Emax [6]: 51% | EC50 [7]: 720 nM | Emax [7]: 86% | EC50 [8]: ~6000 nM | Emax [8]: 11% | EC50 [9]: 590 nM | Emax [9]: 48% | EC50 [10]: > 33000 nM | Emax [10]: 234%

Source: patent US9163256B2, “Mutant receptors and their use in a nuclear receptor-based inducible gene expression system” (priority 2004, dated 2015)
